Measured values as given in US20260062422A1 (Halda Therapeutics OpCo, Inc., priority 2022, published 2026).

Legend:
[1] = tested on: T-Rex 293 cell line SC3 cells having increased expression of androgen receptor protein due to exposure to doxycycline; assay: Cellular growth inhibition, T-Rex 293 SC3 cells with doxycycline (androgen receptor induced), CellTiter-Glo; type: cell-based; conditions: 72 h, T-Rex 293 SC3 cells with 10 ng/mL doxycycline (increased androgen receptor expression)
Summary of the method: (§1)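 With DMSO (0.5%) vehicle as negative control, compounds treated SC3 cells for 72 h in medium containing charcoal-dextran FBS ± doxycycline. This T-Rex 293 clone expresses transfected wild-type AR on induction. Readout: CellTiter-Glo 2.0; GI50 by nonlinear regression.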

[2] = tested on: T-Rex 293 cell line SC3 cells lacking increased expression of androgen receptor protein; assay: Cellular growth inhibition, T-Rex 293 SC3 cells without doxycycline, CellTiter-Glo; type: cell-based; conditions: 72 h, T-Rex 293 SC3 cells not exposed to doxycycline, CellTiter-Glo 2.0
Summary of the method: as §1

VCaP cells = assay: Cellular growth inhibition assay for VCaP cells, CellTiter-Glo; type: cell-based, human; conditions: 72 hours treatment, CellTiter-Glo 2.0
Summary of the method: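 GI50 values come from four-parameter curve fits of luminescence data normalized to a zero baseline. Compound, in medium with 0.5% DMSO, was added one day after plating and left for 72 h before CellTiter-Glo 2.0 addition.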

T47D cells = assay: Cellular growth inhibition assay for T47D cells, CellTiter-Glo; type: cell-based, human; conditions: Homo sapiens, T47D, 72 h, 72 hours treatment, CellTiter-Glo 2.0 cell viability
Summary of the method: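 Cells are plated at 3000/well and allowed 24 h before treatment. Test compound in medium containing 0.5% DMSO is then added, with DMSO-only wells as negative control, and plates are incubated 72 h at 37 °C. ATP luminescence (CellTiter-Glo 2.0) is then fitted to four parameters to derive GI50.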

Compound: CC[C@@H]1N=C(c2ccc(C#CC3CC4(C3)CN(c3cnc(C(=O)N[C@H]5C(C)(C)[C@H](Oc6ccc(C#N)c(Cl)c6)C5(C)C)cn3)C4)cc2)c2c(sc(C)c2C)-n2c(C)nnc21 [Compound I-583]
- GI50 [1]: < 500 nM
- GI50 [2]: 500 to 1500 nM
- GI50 (VCaP cells; Homo sapiens, VCaP, 72 h): < 500 nM
- GI50 (T47D cells): < 500 nM

Compound: Cc1sc2c(c1C)C(c1ccc([C@H]3C[C@@H]([C@@H]4CCCN(c5ncc(C(=O)N[C@H]6C(C)(C)[C@H](Oc7ccc(C#N)c(Cl)c7)C6(C)C)cn5)C4)C3)cc1)=N[C@@H](Cc1ncco1)c1nnc(C)n1-2 [Compound I-419]
- GI50 [1]: > 3000 nM
- GI50 [2]: > 3000 nM
- GI50 (VCaP cells; Homo sapiens, VCaP, 72 h): > 3000 nM
- GI50 (T47D cells): > 3000 nM

Compound: Cc1sc2c(c1C)C(c1ccc(OC3CC4(CCN(c5ncc(C(=O)N[C@H]6C(C)(C)[C@H](Oc7ccc(C#N)c(Cl)c7)C6(C)C)cn5)CC4)C3)cc1)=NC(C(F)(F)F)c1nnc(C)n1-2 (stereo partly drawn) [Compound I-600]
- GI50 [1]: > 3000 nM
- GI50 [2]: > 3000 nM
- GI50 (VCaP cells): > 3000 nM
- GI50 (T47D cells): > 3000 nM

Compound: Cc1sc2c(c1C)C(c1ccc(C#CC3CC4(C3)CN(c3ncc(C(=O)N[C@H]5C(C)(C)[C@H](Oc6ccc(C#N)c(Cl)c6)C5(C)C)cn3)C4)cc1)=N[C@@H](Cc1ncco1)c1nnc(C)n1-2 [Compound I-59]
- GI50 [1]: < 500 nM
- GI50 [2]: < 500 nM
- GI50 (VCaP cells; Homo sapiens, VCaP, 72 h): < 500 nM
- GI50 (T47D cells): < 500 nM

Compound: Cc1sc2c(c1C)C(c1ccc(CN3CC4(CCN(c5ncc(C(=O)N[C@H]6C(C)(C)[C@H](Oc7ccc(C#N)c(Cl)c7)C6(C)C)cn5)CC4)C3)cc1)=N[C@@H](Cc1ncco1)c1nnc(C)n1-2 [Compound I-141]
- GI50 [1]: < 500 nM
- GI50 [2]: 500 to 1500 nM
- GI50 (VCaP cells; Homo sapiens, VCaP, 72 h): < 500 nM
- GI50 (T47D cells): > 3000 nM

Compound: CCNC(=O)C[C@@H]1N=C(c2ccc(CCCN3CCN(c4ncc(C(=O)N[C@H]5C(C)(C)[C@H](Oc6ccc(C#N)c(Cl)c6)C5(C)C)cn4)CC3)cc2)c2c(sc(C)c2C)-n2c(C)nnc21 [Compound I-99]
- GI50 [1]: < 500 nM
- GI50 [2]: 500 to 1500 nM
- GI50 (VCaP cells; Homo sapiens, VCaP, 72 h): 500 to 1500 nM
- GI50 (T47D cells): < 500 nM

Compound: Cc1sc2c(c1C)C(c1ccc(N3CCOC4(CCN(c5ncc(C(=O)N[C@H]6C(C)(C)[C@H](Oc7ccc(C#N)c(Cl)c7)C6(C)C)cn5)CC4)C3)cc1)=NC(Cc1ncco1)c1nnc(C)n1-2 (stereo partly drawn) [Compound I-647]
- GI50 [1]: < 500 nM
- GI50 [2]: > 3000 nM
- GI50 (VCaP cells; Homo sapiens, VCaP, 72 h): > 3000 nM
- GI50 (T47D cells): < 500 nM

Compound: Cc1sc2c(c1C)C(c1ccc(O[C@@H]3CC[C@]4(CCCN(c5ncc(C(=O)N[C@H]6C(C)(C)[C@H](Oc7ccc(C#N)c(Cl)c7)C6(C)C)cn5)C4)C3)cc1)=N[C@@H](Cc1ncco1)c1nnc(C)n1-2 [Compound I-202]
- GI50 [1]: < 500 nM
- GI50 [2]: > 3000 nM
- GI50 (VCaP cells; Homo sapiens, VCaP, 72 h): < 500 nM
- GI50 (T47D cells): 500 to 1500 nM

Compound: CCNC(=O)C[C@@H]1N=C(c2ccc(CCN(C)c3ncc(C(=O)N[C@H]4C(C)(C)[C@H](Oc5ccc(C#N)c(Cl)c5)C4(C)C)cn3)cc2)c2c(sc(C)c2C)-n2c(C)nnc21 [Compound I-103]
- GI50 [1]: < 500 nM
- GI50 [2]: 500 to 1500 nM
- GI50 (VCaP cells; Homo sapiens, VCaP, 72 h): 500 to 1500 nM
- GI50 (T47D cells): 500 to 1500 nM

Compound: CC[C@@H]1N=C(c2ccc(CC3CC4(CCN(c5ccc(C(=O)N[C@H]6C(C)(C)[C@H](Oc7ccc(C#N)c(Cl)c7)C6(C)C)cn5)CC4)C3)cc2)c2c(sc(C)c2C)-n2c(C)nnc21 [Compound I-598]
- GI50 [1]: < 500 nM
- GI50 [2]: > 3000 nM
- GI50 (VCaP cells; Homo sapiens, VCaP, 72 h): < 500 nM
- GI50 (T47D cells): < 500 nM

Compound: Cc1sc2c(c1C)C(c1ccc(N3CC(CC4CCN(c5ncc(C(=O)N(C)[C@H]6C(C)(C)[C@H](Oc7ccc(C#N)c(Cl)c7)C6(C)C)cn5)CC4)C3)cc1)=N[C@@H](C)c1nnc(C)n1-2 [Compound I-618]
- GI50 [1]: < 500 nM
- GI50 [2]: > 3000 nM
- GI50 (VCaP cells; Homo sapiens, VCaP, 72 h): 1500 to 3000 nM
- GI50 (T47D cells): < 500 nM

Compound: COCC[C@@H]1N=C(c2ccc(OC3CC4(C3)CC3(CCN(c5ncc(C(=O)N[C@H]6C(C)(C)[C@H](Oc7ccc(C#N)c(Cl)c7)C6(C)C)cn5)CC3)C4)cc2)c2c(sc(C)c2C)-n2c(C)nnc21 [Compound I-584]
- GI50 [1]: < 500 nM
- GI50 [2]: > 3000 nM
- GI50 (VCaP cells; Homo sapiens, VCaP, 72 h): < 500 nM
- GI50 (T47D cells): < 500 nM

Compound: CCNC(=O)C[C@@H]1N=C(c2ccc(N(C)CCC3CCN(c4ncc(C(=O)N[C@H]5C(C)(C)[C@H](Oc6ccc(C#N)c(Cl)c6)C5(C)C)cn4)CC3)cc2)c2c(sc(C)c2C)-n2c(C)nnc21 [Compound I-110]
- GI50 [1]: < 500 nM
- GI50 [2]: < 500 nM
- GI50 (VCaP cells; Homo sapiens, VCaP, 72 h): < 500 nM
- GI50 (T47D cells): < 500 nM

Compound: Cc1sc2c(c1C)C(c1ccc(N3CCCC(CN(C)c4ncc(C(=O)N[C@H]5C(C)(C)[C@H](Oc6ccc(C#N)c(Cl)c6)C5(C)C)cn4)C3)cc1)=N[C@@H](Cc1ncco1)c1nnc(C)n1-2 (stereo partly drawn) [Compound I-650]
- GI50 [1]: < 500 nM
- GI50 [2]: > 3000 nM
- GI50 (VCaP cells; Homo sapiens, VCaP, 72 h): 500 to 1500 nM
- GI50 (T47D cells): 500 to 1500 nM

Compound: Cc1sc2c(c1C)C(c1ccc(CNC(=O)[C@H]3CCCN(c4ncc(C(=O)N[C@H]5C(C)(C)[C@H](Oc6ccc(C#N)c(Cl)c6)C5(C)C)cn4)C3)cc1)=N[C@@H](Cc1ncco1)c1nnc(C)n1-2 [Compound I-264]
- GI50 [1]: < 500 nM
- GI50 [2]: < 500 nM
- GI50 (VCaP cells; Homo sapiens, VCaP, 72 h): < 500 nM
- GI50 (T47D cells): < 500 nM

Compound: Cc1sc2c(c1C)C(c1ccc(CCCOC3CCN(c4ncc(C(=O)N[C@H]5C(C)(C)[C@H](Oc6ccc(C#N)c(Cl)c6)C5(C)C)cn4)CC3)cc1)=N[C@H](Cc1cnccn1)c1nnc(C)n1-2 [Compound I-278]
- GI50 [1]: < 500 nM
- GI50 [2]: < 500 nM
- GI50 (VCaP cells; Homo sapiens, VCaP, 72 h): < 500 nM
- GI50 (T47D cells): < 500 nM

Compound: COCC[C@@H]1N=C(c2ccc(N3CC(CC4CN(c5cnc(C(=O)N[C@H]6C(C)(C)[C@H](Oc7ccc(C#N)c(Cl)c7)C6(C)C)cn5)C4)C3)cc2)c2c(sc(C)c2C)-n2c(C)nnc21 [Compound I-611]
- GI50 [1]: < 500 nM
- GI50 [2]: < 500 nM
- GI50 (VCaP cells; Homo sapiens, VCaP, 72 h): < 500 nM
- GI50 (T47D cells): 1500 to 3000 nM

Compound: Cc1sc2c(c1C)C(c1ccc(N[C@H]3CCCCN(c4ncc(C(=O)N[C@H]5C(C)(C)[C@H](Oc6ccc(C#N)c(Cl)c6)C5(C)C)cn4)C3)cc1)=NC(Cc1ncco1)c1nnc(C)n1-2 (stereo partly drawn) [Compound I-655]
- GI50 [1]: < 500 nM
- GI50 [2]: > 3000 nM
- GI50 (VCaP cells; Homo sapiens, VCaP, 72 h): 1500 to 3000 nM
- GI50 (T47D cells): 500 to 1500 nM

Compound: Cc1sc2c(c1C)C(c1ccc(CN3CC4(CCCN(c5ncc(C(=O)N[C@H]6C(C)(C)[C@H](Oc7ccc(C#N)c(Cl)c7)C6(C)C)cn5)C4)C3)cc1)=NC(Cc1ncco1)c1nnc(C)n1-2 (stereo partly drawn) [Compound I-138]
- GI50 [1]: < 500 nM
- GI50 [2]: 1500 to 3000 nM
- GI50 (VCaP cells; Homo sapiens, VCaP, 72 h): < 500 nM
- GI50 (T47D cells): 500 to 1500 nM

Compound: Cc1sc2c(c1C)C(c1ccc(CCCOC3CCN(c4ncc(C(=O)N[C@H]5C(C)(C)[C@H](Oc6ccc(C#N)c(Cl)c6)C5(C)C)cn4)CC3)cc1)=C[C@H](Cc1cccnc1)c1nnc(C)n1-2 [Compound I-246]
- GI50 [1]: < 500 nM
- GI50 [2]: > 3000 nM
- GI50 (VCaP cells; Homo sapiens, VCaP, 72 h): < 500 nM
- GI50 (T47D cells): < 500 nM

Compound: Cc1sc2c(c1C)C(c1ccc(O[C@@H]3COC4(CCN(c5ncc(C(=O)N[C@H]6C(C)(C)[C@H](Oc7ccc(C#N)c(Cl)c7)C6(C)C)cn5)C4)C3)cc1)=N[C@@H](Cc1ncco1)c1nnc(C)n1-2 (stereo partly drawn) [Compound I-185]
- GI50 [1]: < 500 nM
- GI50 [2]: < 500 nM
- GI50 (VCaP cells; Homo sapiens, VCaP, 72 h): < 500 nM
- GI50 (T47D cells): < 500 nM
